One assay concerns the target T1, LOX (Sus scrofa, UniProt P45845).
T1 sequence (P45845 1-249): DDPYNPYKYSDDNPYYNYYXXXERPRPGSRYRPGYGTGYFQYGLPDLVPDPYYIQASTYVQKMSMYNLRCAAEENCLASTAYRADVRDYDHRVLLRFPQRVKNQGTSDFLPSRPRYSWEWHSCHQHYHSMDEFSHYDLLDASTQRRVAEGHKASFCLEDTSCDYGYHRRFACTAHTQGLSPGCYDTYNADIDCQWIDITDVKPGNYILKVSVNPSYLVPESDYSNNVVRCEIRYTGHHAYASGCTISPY
Put plainly: LOX enzyme assay (Promega ROS-Glo, cadaverine substrate). Type of assay: biochemical, pig.

The target in assay [1] is T2, LOXL3 (Homo sapiens, UniProt P58215).
T2 sequence (P58215 26-753): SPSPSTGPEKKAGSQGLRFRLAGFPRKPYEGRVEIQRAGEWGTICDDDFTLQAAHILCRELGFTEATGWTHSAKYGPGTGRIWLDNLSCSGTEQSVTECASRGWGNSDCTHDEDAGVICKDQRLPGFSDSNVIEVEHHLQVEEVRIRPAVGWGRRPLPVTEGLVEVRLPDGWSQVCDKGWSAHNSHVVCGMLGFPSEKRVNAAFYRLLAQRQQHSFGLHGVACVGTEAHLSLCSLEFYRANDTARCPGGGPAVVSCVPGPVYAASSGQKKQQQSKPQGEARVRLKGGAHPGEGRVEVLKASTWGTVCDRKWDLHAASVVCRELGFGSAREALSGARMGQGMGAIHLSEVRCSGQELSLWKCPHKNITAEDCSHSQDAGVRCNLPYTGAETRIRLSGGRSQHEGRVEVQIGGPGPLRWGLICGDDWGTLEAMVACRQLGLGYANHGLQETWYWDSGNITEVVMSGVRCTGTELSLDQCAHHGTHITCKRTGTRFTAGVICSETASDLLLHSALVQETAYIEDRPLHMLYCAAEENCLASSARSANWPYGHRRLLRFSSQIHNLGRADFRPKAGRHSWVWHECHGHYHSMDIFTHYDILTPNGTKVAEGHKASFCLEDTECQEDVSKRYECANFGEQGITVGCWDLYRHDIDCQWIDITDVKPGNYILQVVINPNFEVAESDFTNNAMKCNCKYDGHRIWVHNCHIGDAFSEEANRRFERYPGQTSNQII
The assay is described as follows: LOXL3 enzyme assay (Promega ROS-Glo, cadaverine substrate). Type of assay: biochemical.
Protocol: (§1) LOXL2 and LOXL3 were purchased from R&D Systems. LOX, LOXL2, and LOXL3 catalytic activity were determined using the Promega ROS-Glo assay kit with cadaverine dihydrochloride as substrate, BAPN as the reference inhibitor control, a preincubation time of 20 min, 1 h, or 3 h, with nine dilutions from a top concentration of 10 μM or 100 μM.

Assay [2] concerns the target T3, LOXL2 (Homo sapiens, UniProt Q9Y4K0).
T3 sequence (Q9Y4K0 26-774): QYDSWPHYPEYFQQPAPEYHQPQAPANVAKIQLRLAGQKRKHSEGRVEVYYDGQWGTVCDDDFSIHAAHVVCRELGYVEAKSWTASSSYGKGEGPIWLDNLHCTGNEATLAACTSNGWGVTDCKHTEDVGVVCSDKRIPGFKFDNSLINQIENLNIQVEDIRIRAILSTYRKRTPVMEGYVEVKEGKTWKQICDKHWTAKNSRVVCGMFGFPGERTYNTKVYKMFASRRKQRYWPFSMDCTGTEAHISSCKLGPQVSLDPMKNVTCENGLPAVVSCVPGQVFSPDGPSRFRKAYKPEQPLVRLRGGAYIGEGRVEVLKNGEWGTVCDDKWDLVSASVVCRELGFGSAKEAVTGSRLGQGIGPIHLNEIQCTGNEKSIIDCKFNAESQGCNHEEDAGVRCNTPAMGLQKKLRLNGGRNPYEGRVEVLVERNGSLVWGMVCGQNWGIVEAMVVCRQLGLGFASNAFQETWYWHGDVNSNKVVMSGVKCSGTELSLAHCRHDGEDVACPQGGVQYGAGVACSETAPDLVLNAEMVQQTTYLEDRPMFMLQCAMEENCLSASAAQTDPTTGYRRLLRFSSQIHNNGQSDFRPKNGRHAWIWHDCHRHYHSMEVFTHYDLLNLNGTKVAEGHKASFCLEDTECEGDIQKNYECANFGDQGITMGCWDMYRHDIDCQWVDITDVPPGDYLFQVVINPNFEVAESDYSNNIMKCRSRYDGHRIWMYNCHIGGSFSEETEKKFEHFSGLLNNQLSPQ
The assay is described as follows: LOXL2 enzyme assay (Promega ROS-Glo, cadaverine substrate). Type of assay: biochemical.
Protocol: as §1

In assay [3] the target is T3, LOXL2. The class given is biochemical.
Protocol: The enzyme/inhibitor mixture was then diluted 100-fold into a solution containing all enzyme reaction components, and the activity of the enzyme was assessed.
LOXL2 catalytic activity was determined using the Amplex Red hydrogen peroxide assay kit with cadaverine dihydrochloride as substrate. […] The enzyme/inhibitor mixture was then diluted 100-fold into a solution containing substrate and detection reagents and read kinetically every 5 min.
Assay [4] has as its target T2, LOXL3. On the set-up: method as in PMID 30536539, PMID 28471663. The settings on record: literature compounds; cited from earlier work.
The target of another assay is T4, MAO-B (Homo sapiens, UniProt P27338).
T4 construct: purchased Sigma
T4 sequence (P27338 1-520): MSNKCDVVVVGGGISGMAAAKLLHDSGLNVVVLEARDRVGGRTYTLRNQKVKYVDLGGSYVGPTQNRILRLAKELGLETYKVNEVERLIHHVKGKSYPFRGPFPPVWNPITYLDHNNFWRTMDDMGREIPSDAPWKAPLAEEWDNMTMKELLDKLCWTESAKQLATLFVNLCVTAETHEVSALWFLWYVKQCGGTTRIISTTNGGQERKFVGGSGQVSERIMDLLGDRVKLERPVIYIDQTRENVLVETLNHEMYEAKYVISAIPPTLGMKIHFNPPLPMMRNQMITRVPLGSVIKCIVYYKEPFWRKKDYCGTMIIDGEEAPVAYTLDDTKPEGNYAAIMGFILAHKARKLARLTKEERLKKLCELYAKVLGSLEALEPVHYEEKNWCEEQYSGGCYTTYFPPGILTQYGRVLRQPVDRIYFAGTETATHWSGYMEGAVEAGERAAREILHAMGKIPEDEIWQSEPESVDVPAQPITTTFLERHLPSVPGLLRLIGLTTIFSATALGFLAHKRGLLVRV
Type of assay: biochemical. The settings on record: Table 7.

A further assay concerns the target T5, DAO (Sus scrofa, UniProt Q9TRC7).
T5 construct: purchased Sigma
T5 sequence (Q9TRC7 25-755): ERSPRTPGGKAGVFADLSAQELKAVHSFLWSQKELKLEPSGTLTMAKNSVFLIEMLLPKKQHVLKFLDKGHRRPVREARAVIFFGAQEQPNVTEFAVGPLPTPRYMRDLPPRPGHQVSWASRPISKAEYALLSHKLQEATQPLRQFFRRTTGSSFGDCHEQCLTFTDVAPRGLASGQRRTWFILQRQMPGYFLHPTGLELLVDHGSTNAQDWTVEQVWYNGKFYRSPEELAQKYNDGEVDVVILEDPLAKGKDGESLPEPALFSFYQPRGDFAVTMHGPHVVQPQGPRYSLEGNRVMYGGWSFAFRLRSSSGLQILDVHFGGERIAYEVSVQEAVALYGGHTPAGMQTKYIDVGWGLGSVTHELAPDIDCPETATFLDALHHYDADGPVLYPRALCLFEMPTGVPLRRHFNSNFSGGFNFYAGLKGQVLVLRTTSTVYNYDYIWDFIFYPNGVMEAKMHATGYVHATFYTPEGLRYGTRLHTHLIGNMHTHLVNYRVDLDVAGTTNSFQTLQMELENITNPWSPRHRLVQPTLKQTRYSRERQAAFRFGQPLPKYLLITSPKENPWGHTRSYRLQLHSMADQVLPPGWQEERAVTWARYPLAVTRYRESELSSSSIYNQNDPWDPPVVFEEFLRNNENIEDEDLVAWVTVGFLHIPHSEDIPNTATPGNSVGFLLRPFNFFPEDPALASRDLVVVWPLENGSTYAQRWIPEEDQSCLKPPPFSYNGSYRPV
Type of assay: biochemical. The settings on record: Table 7.

The target in assay [5] is T6, SSAO (Homo sapiens, UniProt Q16853).
T6 construct: purchased Sigma
T6 sequence (Q16853 1-763): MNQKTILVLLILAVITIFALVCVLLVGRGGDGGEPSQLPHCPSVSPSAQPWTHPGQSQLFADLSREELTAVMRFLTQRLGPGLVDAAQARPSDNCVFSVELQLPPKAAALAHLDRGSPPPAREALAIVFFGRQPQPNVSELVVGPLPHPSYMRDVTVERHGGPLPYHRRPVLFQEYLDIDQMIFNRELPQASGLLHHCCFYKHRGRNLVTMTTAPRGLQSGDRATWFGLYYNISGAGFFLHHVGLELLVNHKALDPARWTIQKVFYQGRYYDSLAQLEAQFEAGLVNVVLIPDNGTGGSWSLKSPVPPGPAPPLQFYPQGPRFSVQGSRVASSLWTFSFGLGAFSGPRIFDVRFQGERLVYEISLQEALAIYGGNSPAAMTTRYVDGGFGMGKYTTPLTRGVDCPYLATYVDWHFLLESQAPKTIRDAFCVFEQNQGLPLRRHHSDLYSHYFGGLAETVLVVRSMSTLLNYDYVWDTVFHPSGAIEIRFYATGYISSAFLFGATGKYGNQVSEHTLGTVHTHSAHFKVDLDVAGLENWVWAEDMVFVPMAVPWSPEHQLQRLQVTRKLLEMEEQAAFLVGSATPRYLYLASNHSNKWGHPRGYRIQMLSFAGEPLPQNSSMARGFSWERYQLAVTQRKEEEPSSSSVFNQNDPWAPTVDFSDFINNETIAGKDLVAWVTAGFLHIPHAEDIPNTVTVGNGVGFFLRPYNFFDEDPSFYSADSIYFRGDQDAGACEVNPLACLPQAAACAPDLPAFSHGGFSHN
Type of assay: biochemical.
Protocol: (§2) All amine oxidase assays were performed with concentrations as above. MAO-A and MAO-B enzymes were purchased from Sigma. The catalytic activity of MAO-A and MAO-B was determined using the Promega MAO-Glo assay kit (substrate included), with clorgyline and deprenyl as reference inhibitor controls, respectively. DAO was purchased from Sigma, and the catalytic activity was determined using the Promega ROS-Glo assay kit, with aminoguanidine as the reference inhibitor control. SSAO was purchased from Sigma. SSAO catalytic activity was determined using the Promega MAO-Glo assay kit, with mofegiline as the reference inhibitor control.

Another assay addresses T7, MAO-A (Homo sapiens, UniProt P21397).
T7 construct: purchased Sigma
T7 sequence (P21397 1-527): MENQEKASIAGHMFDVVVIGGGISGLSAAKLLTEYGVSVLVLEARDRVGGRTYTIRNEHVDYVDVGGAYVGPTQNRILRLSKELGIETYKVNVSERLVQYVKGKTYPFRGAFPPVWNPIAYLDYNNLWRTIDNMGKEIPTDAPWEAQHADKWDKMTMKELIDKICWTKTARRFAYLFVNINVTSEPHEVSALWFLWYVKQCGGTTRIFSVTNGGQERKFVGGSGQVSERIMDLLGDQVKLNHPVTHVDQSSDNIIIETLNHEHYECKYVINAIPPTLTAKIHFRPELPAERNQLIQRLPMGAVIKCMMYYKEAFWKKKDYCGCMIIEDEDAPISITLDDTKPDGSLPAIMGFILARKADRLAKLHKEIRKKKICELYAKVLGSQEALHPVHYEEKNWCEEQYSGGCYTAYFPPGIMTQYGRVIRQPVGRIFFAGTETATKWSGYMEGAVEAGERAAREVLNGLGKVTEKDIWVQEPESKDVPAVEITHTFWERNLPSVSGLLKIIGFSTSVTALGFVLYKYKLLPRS
The class given is biochemical. The settings on record: Table 7.

The target of assay [6] is T6, SSAO. Put plainly: Assessment of compound as a substrate for SSAO (Amplex red). Type of assay: biochemical. The settings on record: hydrogen peroxide quantified with Amplex red kit; benzylamine positive control.
Setting [7] is: supplementary csv, unit inferred.

Several values for one entry are separate records, joined by “and”; a condition that tells them apart may be missing. Identical values can stand only once. Counter-ions that a name gives are not always drawn. Like-named read-outs stand apart in the source and are kept apart here.

Protocol for DAO: as §2
Protocol for MAO-A: as §2
Protocol for MAO-B: as §2

Turning to `N#CCCN` [BAPN, β-aminopropionitrile, reference compound], the IC50 on LOX was found to be 3.14 µM; at LOXL3 [1], 0.31 µM; at LOXL2 [2] (read-out: LOXL2, 20 min, IC50), 4.26 µM; on LOXL2 [2] (read-out: LOXL2, 1 h, IC50) it was 0.665 µM; on LOXL2 [2] (read-out: LOXL2, 3 h, IC50) it was 0.372 µM; on LOXL2 [2] (read-out: LOXL2 IC50), 0.665 µM. For the same compound, the “LOXL2 inhibition at 10 × IC50 before dilution” value on LOXL2 [3] is “complete inhibition”. In addition, on LOXL2 [3], the “mode of LOXL2 inhibition” value is “irreversible inhibitor”.

In the case of `Cc1c(-c2cccc(S(=O)(=O)N(C)C)c2)c2ncccc2n1C/C(F)=C/CN` [Compound 1], the “activity for LOXL2 and LOXL3 within x-fold” value on LOXL3 [4] is no more than 3 fold.

As to `NCc1cc(Oc2cccc(C(=O)N3C[C@@H](O)[C@H](F)C3)c2)nc(C(F)(F)F)c1` [Compound 2], the “activity for LOXL2 and LOXL3 within x-fold” value at LOXL3 [4] is no more than 3 fold.

Consider `Cn1cc(-c2cc(S(C)(=O)=O)cc(S(=O)(=O)c3cnc(CN)s3)c2)cn1` [Compound 21a, (5-((3-(1-Methyl-1H-pyrazol-4-yl)-5-(methylsulfonyl)phenyl)sulfonyl)thiazol-2-yl)methanamine Hydrochloride], for which the IC50 against LOX (Table 6, 1 h preincubation) is 3.42 µM and 2.65 µM; against LOXL3 [1] it was 1.22 µM and 1.51 µM; against LOXL3 [1] (Table 6, 1 h preincubation), roughly 1 µM; against MAO-B, greater than 100 µM; at DAO, greater than 100 µM; against SSAO [5] (Table 7), 13.3 µM and 17.2 µM. At MAO-A, this compound registered a half-maximal inhibitory concentration (IC50) greater than 100 µM.

As for `CCc1cc(-c2cnn(C)c2)cc(S(=O)(=O)c2cnc(CN)s2)c1` [Compound 21b, (5-((3-Ethyl-5-(1-methyl-1H-pyrazol-4-yl)phenyl)sulfonyl)thiazol-2-yl)methanamine Hydrochloride], on SSAO [6], the “substrate of SSAO” value is given as “not a substrate of SSAO”. The half-maximal inhibitory concentration (IC50) against SSAO [5] was 28.6 µM and 19.6 µM.

With `CS(=O)(=O)c1cc(-c2ccccc2)cc(S(=O)(=O)c2csc(CN)n2)c1` [Compound 22b, (4-((5-(Methylsulfonyl)-[1,1′-biphenyl]-3-yl)sulfonyl)thiazol-2-yl)methanamine Hydrochloride], the IC50 against LOX (Table 6, 1 h preincubation) is greater than 100 µM; against LOX (setting [7]) it was greater than 100 µM; on LOXL3 [1] it was 3.86 µM and 4.26 µM; against MAO-B, greater than 100 µM; on DAO, greater than 100 µM; against SSAO [5] (Table 7), greater than 100 µM. The compound also yielded an IC50 at MAO-A greater than 100 µM.

In the case of `Cn1cc(-c2cc(S(C)(=O)=O)cc(S(=O)(=O)c3csc(CN)n3)c2)cn1` [Compound 22c, (4-((3-(1-Methyl-1H-pyrazol-4-yl)-5-(methylsulfonyl)phenyl)sulfonyl)thiazol-2-yl)methanamine Hydrochloride], the IC50 is greater than 100 µM against LOX (Table 6, 1 h preincubation); greater than 100 µM on LOX (setting [7]); 7.56 µM and 6.69 µM on LOXL3 [1]; greater than 100 µM on MAO-B; greater than 100 µM against DAO; greater than 100 µM on SSAO [5] (Table 7). At MAO-A, this compound returned a half-inhibitory concentration (IC50) greater than 100 µM.
